Measurements: patent publication US4780420A (Yale University, priority 1985, dated 1988)
Where two headings read alike, the source gives them in different places.

Columns and labels:
[1] = biological target: T1, progesterone receptor (Oryctolagus cuniculus, UniProt P06186); assay: Competition of a series of steroids with [^3 H]R5020 and [^125 I]EVNT (specificity); type: binding, rabbit; details: for competing for sites with either ligand (in words): [^3 H]R5020 and [^125 I]EVNT; for activity at 0.003 µM: competitor 3 nM; for activity at 0.1 µM: competitor 100 nM
T1 construct: On the fifth day the uterus was excised, weighed and homogenized; from tissue
T1 sequence (P06186 1-930): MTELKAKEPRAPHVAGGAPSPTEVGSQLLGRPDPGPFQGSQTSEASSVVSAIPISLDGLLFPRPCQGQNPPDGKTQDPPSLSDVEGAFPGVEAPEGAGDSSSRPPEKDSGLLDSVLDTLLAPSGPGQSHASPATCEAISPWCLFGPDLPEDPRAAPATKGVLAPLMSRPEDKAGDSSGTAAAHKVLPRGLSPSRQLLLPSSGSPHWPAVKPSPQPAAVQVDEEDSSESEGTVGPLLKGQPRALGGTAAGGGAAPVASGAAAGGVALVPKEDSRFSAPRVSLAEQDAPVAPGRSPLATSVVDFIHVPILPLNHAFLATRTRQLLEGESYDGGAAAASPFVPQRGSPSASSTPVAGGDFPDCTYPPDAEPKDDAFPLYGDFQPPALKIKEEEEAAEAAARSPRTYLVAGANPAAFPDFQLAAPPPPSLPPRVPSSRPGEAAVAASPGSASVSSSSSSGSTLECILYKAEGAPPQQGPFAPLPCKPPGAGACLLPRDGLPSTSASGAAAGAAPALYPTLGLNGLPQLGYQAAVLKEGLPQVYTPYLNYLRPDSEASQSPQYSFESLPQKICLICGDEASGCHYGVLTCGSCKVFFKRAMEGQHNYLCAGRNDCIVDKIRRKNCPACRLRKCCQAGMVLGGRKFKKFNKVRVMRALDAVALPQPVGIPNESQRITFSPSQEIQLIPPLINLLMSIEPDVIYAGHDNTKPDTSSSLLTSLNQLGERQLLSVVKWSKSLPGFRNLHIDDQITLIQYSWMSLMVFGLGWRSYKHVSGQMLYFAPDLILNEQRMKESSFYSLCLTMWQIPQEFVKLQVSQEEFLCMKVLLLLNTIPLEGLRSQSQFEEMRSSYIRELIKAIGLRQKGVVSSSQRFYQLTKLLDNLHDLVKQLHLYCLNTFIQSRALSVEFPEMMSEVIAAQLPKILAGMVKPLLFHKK
Description: To be sure that [^125 I]EVNT and [^3 H]R5020 bound with similar specificities, experiments were performed in which a series of steroids competed with the two differently labelled ligands.
Bo is dpm specifically bound when
B is dpm bound in the presence of […]

[2] = test system: estrogen receptor; details: Hansen et al., Jogoda et al.; cited from earlier work
[3] = in vivo; cited from earlier work
[4] = biological target: T1, progesterone receptor; assay: Progesterone receptor assay: competition with [^3 H]R5020 binding; parameters: species or system rabbit
Description: On the fifth day the uterus was excised, weighed and homogenized at 0° C. in 1.5 volumes of iced buffer containing: 1 mM dithiothreitol, 0.15 mM Na2 EDTA, 30% glycerol, 20 mM sodium molybdate, 10 mM Tris/HCl, pH 7.4 (4° C.). Homogenization was accomplished with three 10 second bursts of Polytron homogenizer. The homogenate was centrifuged at 3,000×g for 10 min. and the resulting supernatant was centrifuged at 100,000×g for 1 hour. The final supertant (cytosol) was diluted with homogenization buffer to afford 20-40% binding of a trace of [^3 H]R5020 (90 Ci/mMol), 10,000 dpm, and 50 μl of the appropriate radioinert compound. Non-specific binding was evaluated in tubes containing 2 μM R5020. After incubating at 4° C. overnight, free and bound steroids were separated by the addition of 100 μl of a stirred suspension of charcoal (5 mg/ml) in 10 mM Tris-HCl, pH 7.4 (4° C.), 0.15 mM Na2 EDTA. After mixing and standing on ice for 10 min., the tubes were centrifuged at 1500×g for 10 mins. and the "bound" radioactivity, in a 0.15 ml aliquot of the supernatant, was measured in a liquid scintillation counter.
In FIG. 1, Bo is the specifically bound [^3 H]R5020 alone and b is the specifically bound [^3 H]R5020 in the presence of the designated concentration of competitor. […] In Table 1 below, the values in parenthesis are the number of complete experiments which were conducted; the binding constants are means±SEM.

[5] = biological target: T1, progesterone receptor; assay: Saturation and Scatchard analysis of the progesterone receptor with [^125 I]EVNT and [^3 H]R5020; type: binding, rabbit; details: for slope and intercept of the Scatchard plots, i.e. -Ka and the binding capacity (in words): FIG. 3, R5020 vs EVNT
[6] = Storage stability by thin layer chromatography; type: physicochemical; details: 4° C., 10% ethanol in benzene
Description: The radioactive product, [^125 I]EVNT, was stored at 4° C. in the alcoholic benzene solution.

[7] = read-out: B/Bo × 10^2, radioligand [^3 H]R5020 (0.67 nM)
[8] = read-out: B/Bo × 10^2, radioligand [^125 I]EVNT (0.18 nM)
[9] = radioligand [^3 H]R5020 (0.67 nM), read-out: B/Bo × 10^2
[10] = radioligand [^125 I]EVNT (0.18 nM), read-out: B/Bo × 10^2
[11] = estrogen stimulated rabbit uterine cytosol, five experiments

With `C[C@]12CCC(=O)C[C@@H]1CC[C@@H]1[C@@H]2CC[C@]2(C)[C@@H](O)CC[C@@H]12` [5α-DHT, 5α-dihydrotestosterone] the “competing for sites with either ligand (in words)” value (from here on “competing for sites”) [1] was “ineffective in competing for sites with either ligand”, the activity at 0.003 µM [1, 7] was 101% and the activity at 0.1 µM [1, 7] was 95%. It also gave an activity at 0.003 µM [1, 8] of 100% and an activity at 0.1 µM [1, 8] of 91%.

In the case of `C[C@]12CCC(=O)C=C1CC[C@@H]1[C@@H]2[C@@H](O)C[C@@]2(C)[C@H]1CC[C@]2(O)C(=O)CO` [Cortisol], the “competing for sites” value [1] is reported as “ineffective in competing for sites with either ligand”, the activity at 0.003 µM [1, 9] is reported as 98% and the activity at 0.1 µM [1, 9] is reported as 106%. For the same compound, the activity at 0.003 µM [1, 10] was 100% and the activity at 0.1 µM [1, 10] was 102%.

In the case of `C[C@@H]1C[C@H]2[C@@H]3CCC4=CC(=O)C=C[C@]4(C)[C@@]3(F)[C@@H](O)C[C@]2(C)[C@@]1(O)C(=O)CO` [Dexamethasone], the “competing for sites” value [1] is reported as “ineffective in competing for sites with either ligand”, the activity at 0.003 µM [1, 9] is reported as 103% and the activity at 0.1 µM [1, 9] is reported as 101%. For the same compound, the activity at 0.003 µM [1, 10] was 96% and the activity at 0.1 µM [1, 10] was 100%.

For `C[C@]12CC[C@@H]3c4ccc(O)cc4CC[C@H]3[C@@H]1CC[C@@]2(O)/C=C/I` [E-17α-[2-iodovinyl]analogs of estradiol], the “binding to the estrogen receptor (in words)” value [2] is listed as “bind to the estrogen receptor” and the “concentration in estrogen target tissues (in words)” value [3] is listed as “concentrate in estrogen target tissues”.

For `C[C@]12CC[C@H]3[C@@H](CCC4=CC(=O)CC[C@@H]43)[C@@H]1CC[C@@]2(O)/C=C/I` [EVNT, E-17α-(2-iodovinyl)-4-estrene-17β-ol-3-one], the Ki [4] was 4.26 ± 0.94 nM, the “binding to the progesterone receptor (in words)” value [4] was “bind the progesterone receptor with high affinity” and the “competing for sites” value [1] was “substantial competition”. The activity at 0.003 µM [1, 7] was 42%, the activity at 0.1 µM [1, 7] was 0% and the activity at 0.003 µM [1, 8] was 74%. For the same compound, the activity at 0.1 µM [1, 8] was 0%, the “slope and intercept of the Scatchard plots, i.e. -Ka and the binding capacity (in words)” value [5] was “almost the same” and the “level of non-specific binding (in words)” value ([5]; FIGS. 2A and 2B) was “satisfactory and almost identical to that seen with R5020”.

In the case of `C[C@]12CC[C@H]3[C@@H](CCC4=CC(=O)CC[C@@H]43)[C@@H]1C[C@@H](I)[C@@H]2O` [INT, 16α-Iodo-4-estrene-17β-ol-3-one], the Ki [4] is reported as 39.8 nM and the “binding to the progesterone receptor (in words)” value [4] is reported as “bind the progesterone receptor with high affinity”.

For `CC(=O)[C@H]1CC[C@H]2[C@@H]3CCC4=CC(=O)CC[C@]4(C)[C@H]3CC[C@]12C` [Progesterone], the “competing for sites” value [1] was “substantial competition”, the activity at 0.003 µM [1, 9] was 94% and the activity at 0.1 µM [1, 9] was 37%. It also gave an activity at 0.003 µM [1, 10] of 91% and an activity at 0.1 µM [1, 10] of 22%.

In the case of `CCC(=O)[C@@]1(C)CC[C@H]2[C@@H]3CCC4=CC(=O)CCC4=C3CC[C@@]21C` [R5020, 17α,21-dimethyl-19-nor-4,9-pregnadiene-3,20-dione], the Kd ([4]; R5020, footnote *Kd, rabbit uterine cytosol, mean±SEM (5 experiments)) is reported as 1.05 ± 0.19 nM, the “competing for sites” value [1] is reported as “substantial competition” and the activity at 0.003 µM [1, 9] is reported as 34%. The activity at 0.1 µM [1, 9] was 0%, the activity at 0.003 µM [1, 10] was 74% and the activity at 0.1 µM [1, 10] was 0%. The “slope and intercept of the Scatchard plots, i.e. -Ka and the binding capacity (in words)” value [5] was “almost the same”.

In the case of `C[C@]12CC[C@H]3[C@@H](CCC4=CC(=O)CC[C@@]43C)[C@@H]1CC[C@@H]2O` [Testosterone], the “competing for sites” value [1] is reported as “ineffective in competing for sites with either ligand”, the activity at 0.003 µM [1, 7] is reported as 100% and the activity at 0.1 µM [1, 7] is reported as 105%. The activity at 0.003 µM [1, 8] was 101% and the activity at 0.1 µM [1, 8] was 98%.

With `C[C@]12CC[C@H]3[C@@H](CCC4=CC(=O)CC[C@@H]43)[C@@H]1CC[C@@]2(O)/C=C\I` [ZVNT, Z-17α-(2-iodovinyl)-4-estrene-17β-ol-3-one] the Ki [4] was 1.81 nM, the “binding to the progesterone receptor (in words)” value ([4]; listed as Z 17α-(2-iodovinyl) analog of 19-nortestosterone) was “bind the progesterone receptor with high affinity” and the “binding to the progesterone receptor (in words)” value ([4]; listed as Z isomer) was “somewhat greater affinity for the progesterone receptor”.

`CCC(=O)[C@@]1(C)CC[C@H]2[C@@H]3CCC4=CC(=O)CCC4=C3CC[C@@]21C` [[^3 H]R5020, [^3 H]17α,21-dimethyl-19-nor-4,9-pregnadiene-3,20-dione] gave a binding capacity [5, 11] of 666 ± 198 pM and a Kd ([5]; estrogen stimulated rabbit uterine cytosol, five experiments, ± SEM, read-out: Association constant Ka (converted)) of 0.8 nM.

With `C[C@]12CC[C@H]3[C@@H](CCC4=CC(=O)CC[C@@H]43)[C@@H]1CC[C@@]2(O)/C=C/[125I]` [[^125 I]EVNT] the Kd [5] was 1.05 nM, the binding capacity [5, 11] was 921 pM and the “stable for a period of at least” value [6] was 2-3 months.
